{"source": "patent US5466687A", "about": "“Arylidene-1-azacycloalkanes and arylalkyl-1-azacyclo-alkanes, their salts, medicaments containing these compounds and their use, and processes for their preparation” (priority 1992, dated 1995)", "tested_on": "human hepatoma cells (HEP-G2)", "assay": "Inhibition of 14C-acetate incorporation in digitonin-precipitatable steroids in HEP-G2 cells", "type": "cell-based", "conditions": "Homo sapiens; for percent change in 14C-acetate incorporation into sterols at 0.1 µM: HepG2, 10^-7 mol/l; for percent change in 14C-acetate incorporation into sterols at 0.01 µM: HepG2, 10^-8 mol/l", "protocol": "I. Measurement of the inhibition of ^14 C-acetate incorporation in digitonin-precipitatable steroids:\nAfter 3 days of culture, human hepatoma cells (HEP-G2) are stimulated for 16 hours in cholesterol-free medium. The substances to be tested (dissolved in dimethyl sulphoxide, final concentration 0.1%) are added during this stimulation phase. After the addition of 200 μmol/l of 2-^14 C-acetate, the mixture is then reincubated at 37° C. for a further 2 hours.\nThe cells are detached and the sterol esters are hydrolyzed and, after extraction, sterols are precipitated using digitonin. The ^14 C-acetate incorporated into digitonin-precipitatable sterols is determined by scintillation measurement.\nThe investigation of the inhibitory action was carried out at test concentrations of 10^-7 mol/l and 10^-8 mol/l. The test results of the following compounds A to AG of the general formula I are indicated at these test concentrations by way of example: […]"}
{"smiles": "O=C(c1ccccc1)N1CCC(=Cc2ccc(C3=NCCO3)cc2)CC1", "note": "[AA, 1-benzoyl-4-[4-(2-oxazolin-2-yl)benzylidene]piperidine]", "values": [{"measurement": "percent change in 14C-acetate incorporation into sterols at 0.1 µM", "result": -70, "unit": "%"}, {"measurement": "percent change in 14C-acetate incorporation into sterols at 0.01 µM", "result": -25, "unit": "%"}]}
{"smiles": "CC(C)(C)c1ccc(C(=O)N2CCC(=Cc3ccc(C4=NCCO4)cc3)CC2)cc1", "note": "[AB, 1-(4-tert.butylbenzoyl)-4-[4-(2-oxazolin-2-yl)benzylidene]piperidine]", "values": [{"measurement": "percent change in 14C-acetate incorporation into sterols at 0.1 µM", "result": -18, "unit": "%"}, {"measurement": "percent change in 14C-acetate incorporation into sterols at 0.01 µM", "result": -6, "unit": "%"}]}
{"smiles": "COc1ccc(C(=O)N2CCC(=Cc3ccc(C4=NCCO4)cc3)CC2)cc1", "note": "[AC, 1-(4-methoxybenzoyl)-4-[4-(2-oxazolin-2-yl)benzylidene]piperidine]", "values": [{"measurement": "percent change in 14C-acetate incorporation into sterols at 0.1 µM", "result": -25, "unit": "%"}, {"measurement": "percent change in 14C-acetate incorporation into sterols at 0.01 µM", "result": -16, "unit": "%"}]}
{"smiles": "O=C(c1ccc(Br)cc1)N1CCC(=Cc2ccc(C3=NCCO3)cc2)CC1", "note": "[AD, 1-(4-bromobenzoyl)-4-[4-(2-oxazolin-2-yl)benzylidene]piperidine]", "values": [{"measurement": "percent change in 14C-acetate incorporation into sterols at 0.1 µM", "result": -85, "unit": "%"}, {"measurement": "percent change in 14C-acetate incorporation into sterols at 0.01 µM", "result": -44, "unit": "%"}]}
{"smiles": "O=C(c1ccc([N+](=O)[O-])cc1)N1CCC(=Cc2ccc(C3=NCCO3)cc2)CC1", "note": "[AE, 1-(4-nitrobenzoyl)-4-[4-(2-oxazolin-2-yl)benzylidene]piperidine]", "values": [{"measurement": "percent change in 14C-acetate incorporation into sterols at 0.1 µM", "result": -71, "unit": "%"}, {"measurement": "percent change in 14C-acetate incorporation into sterols at 0.01 µM", "result": -22, "unit": "%"}]}
{"smiles": "O=C(Cc1ccc(Cl)cc1)N1CCC(=Cc2ccc(C3=NCCO3)cc2)CC1", "note": "[AF, 1-(4-chlorophenylacetyl)-4-[4-(2-oxazolin-2-yl)benzylidene]piperidine]", "values": [{"measurement": "percent change in 14C-acetate incorporation into sterols at 0.1 µM", "result": -63, "unit": "%"}, {"measurement": "percent change in 14C-acetate incorporation into sterols at 0.01 µM", "result": -22, "unit": "%"}]}
{"smiles": "O=C(c1cccc2ccccc12)N1CCC(=Cc2ccc(C3=NCCO3)cc2)CC1", "note": "[AG, 1-(1-naphthylcarbonyl)-4-[4-(2-oxazolin-2-yl)benzylidene]piperidine]", "values": [{"measurement": "percent change in 14C-acetate incorporation into sterols at 0.1 µM", "result": -67, "unit": "%"}, {"measurement": "percent change in 14C-acetate incorporation into sterols at 0.01 µM", "result": -30, "unit": "%"}]}
{"smiles": "O=S(=O)(c1ccc(Cl)cc1)N1CCC(=Cc2ccc(C3=NCCO3)cc2)CC1", "note": "[N, 1-(4-chlorobenzenesulphonyl)-4-[4-(2-oxazolin-2-yl)benzylidene]piperidine]", "values": [{"measurement": "percent change in 14C-acetate incorporation into sterols at 0.1 µM", "result": -86, "unit": "%"}, {"measurement": "percent change in 14C-acetate incorporation into sterols at 0.01 µM", "result": -63, "unit": "%"}]}
{"smiles": "O=S(=O)(c1ccc(Cl)cc1)N1CCC(=Cc2ccc(C3=NCCN3)cc2)CC1", "note": "[O, 1-(4-chlorobenzenesulphonyl)-4-[4-(2-imidazolin-2-yl)benzylidene]piperidine]", "values": [{"measurement": "percent change in 14C-acetate incorporation into sterols at 0.1 µM", "result": -45, "unit": "%"}, {"measurement": "percent change in 14C-acetate incorporation into sterols at 0.01 µM", "result": -1, "unit": "%"}]}
{"smiles": "O=C(c1ccc(Cl)cc1)N1CCC(Cc2ccc(C3=NCCS3)cc2)CC1", "note": "[P, 1-(4-chlorobenzoyl)-4-[4-(2-thiazolin-2-yl)benzyl]piperidine]", "values": [{"measurement": "percent change in 14C-acetate incorporation into sterols at 0.1 µM", "result": -14, "unit": "%"}, {"measurement": "percent change in 14C-acetate incorporation into sterols at 0.01 µM", "result": -5, "unit": "%"}]}
{"smiles": "C[C@H]1CN=C(c2ccc(C=C3CCN(C(=O)c4ccc(Cl)cc4)CC3)cc2)O1", "note": "[Q, 1-(4-chlorobenzoyl)-4-[4-(S-5-methyl-2-oxazolin-2-yl)benzylidene]piperidine]", "values": [{"measurement": "percent change in 14C-acetate incorporation into sterols at 0.1 µM", "result": -89, "unit": "%"}, {"measurement": "percent change in 14C-acetate incorporation into sterols at 0.01 µM", "result": -44, "unit": "%"}]}
{"smiles": "C[C@@H]1COC(c2ccc(C=C3CCN(C(=O)c4ccc(Cl)cc4)CC3)cc2)=N1", "note": "[R, 1-(4-chlorobenzoyl)-4-[4-(R-4-methyl-2-oxazolin-2-yl)benzylidene]piperidine]", "values": [{"measurement": "percent change in 14C-acetate incorporation into sterols at 0.1 µM", "result": -88, "unit": "%"}, {"measurement": "percent change in 14C-acetate incorporation into sterols at 0.01 µM", "result": -57, "unit": "%"}]}
{"smiles": "O=C(c1ccc(Cl)cc1)N1CCC(=Cc2ccc(C3=NCC(c4ccccc4)O3)cc2)CC1", "note": "(stereo not shown) [S, 1-(4-chlorobenzoyl)-4-[4-(5-phenyl-2-oxazolin-2-yl)benzylidene]piperidine]", "values": [{"measurement": "percent change in 14C-acetate incorporation into sterols at 0.1 µM", "result": -24, "unit": "%"}, {"measurement": "percent change in 14C-acetate incorporation into sterols at 0.01 µM", "result": 0, "unit": "%"}]}
{"smiles": "CCN(CC)CC1CN=C(c2ccc(C=C3CCN(C(=O)c4ccc(Cl)cc4)CC3)cc2)O1", "note": "(stereo not shown) [T, 1-(4-chlorobenzoyl)-4-[4-(5-diethylaminomethyl-2-oxazolin-2-yl)benzylidene]piperidine]", "values": [{"measurement": "percent change in 14C-acetate incorporation into sterols at 0.1 µM", "result": -57, "unit": "%"}, {"measurement": "percent change in 14C-acetate incorporation into sterols at 0.01 µM", "result": -29, "unit": "%"}]}
